Laboratory results published in patent publication US20240384350A1, “METHODS OF TREATING CANCER WITH KINASE INHIBITORS” (BOARD OF REGENTS, THE UNIVERSITY OF TEXAS SYSTEM, priority 2021, published 2024).

How the values were obtained:
Experiment in all cases: Ba/F3 drug screening, Cell Titer Glo, IC50 Mut/WT
Type in all cases: cell-based
EGFR N771dupN G724S = target: T1, EGFR N771dupN G724S (Homo sapiens, UniProt P00533, DUP771-771/G724S); details: Ex20, 72 hours
T1 construct: expressed in transfected cells; host or cells: Ba/F3 cells, retroviral pBabe-Puro vector (vector made by GeneScript from EGFR G724S, c.2313_2314insAAC)

EGFR S768dupSVD V769M = target: T2, EGFR S768dupSVD V769M (Homo sapiens, UniProt P00533, INS768MDS/V769M); details: Ex20, 72 hours
T2 construct: expressed in transfected cells; host or cells: Ba/F3 cells, retroviral pBabe-Puro vector (vector made by GeneScript from EGFR S768dupSVD, c.2305G > A)
Description: (§1) Data represent the ratio of the IC50 value for a given TKI for cells with an ex20ins EGFR mutation to the IC50 value for cells with wildtype EGFR.
(§2) Ba/F3 cell generation, drug screening, and IC50 approximations. Ba/F3 cells were obtained as a gift from Dr. Gordon Mills (MD Anderson Cancer Center), and maintained in RPMI (Sigma) containing 10% FBS, 1% penicillin/streptomycin, and 10 ng/ml recombinant mIL-3 (R&D Biosystems). To establish stable Ba/F3 cell lines, Ba/F3 cells were transduced with retroviruses containing mutant EGFR plasmids for 12-24 hours.
(§3) After 48-72 hours of transduction, 2 μg/ml puromycin (Invitrogen) was added to Ba/F3 cell lines in complete RPMI. To select for EGFR positive cell lines, cells were stained with PE-EGFR (Biolegend) and sorted by FACS. After sorting, EGFR positive cells were maintained in RPMI containing 10% FBS, 1% penicillin/streptomycin, and 1 ng/ml EGF to support cell viability. Drug screening was performed as previously described^41,42. Shortly, cells were plated in 384-well plates (Greiner Bio-One) at 2000-3000 cells per well in technical triplicate. Seven different concentrations of TKIs or DMSO vehicle were added to reach a final volume of 40 μL per well. After 72 hours, 11 μL of Cell Titer Glo (Promega) was added to each well. Plates were incubated for a minimum of 10 minutes, and bioluminescence was determined using a FLUOstar OPTIMA plate reader (BMG LABTECH). Raw bioluminescence values were normalized to DMSO control treated cells, and values were plotted in GraphPad Prism. […] Drug screens were performed in technical triplicate on each plate and either duplicate or triplicate biological replicates. […] Statistical differences between groups were determined by ANOVA as described in the figure legends.

EGFR S768I = target: T3, EGFR S768I (Homo sapiens, UniProt P00533, S768I)
T3 construct: expressed in transfected cells; host or cells: Ba/F3

EGFR G719A/R776C = target: T4, EGFR G719A/R776C (Homo sapiens, UniProt P00533, G719A/R776C)
T4 construct: expressed in transfected cells; host or cells: Ba/F3

EGFR E709K = target: T5, EGFR E709K (Homo sapiens, UniProt P00533, E709K)
T5 construct: expressed in transfected cells; host or cells: Ba/F3

EGFR G724S T790M = target: T6, EGFR G724S T790M (Homo sapiens, UniProt P00533, G724S/T790M); details: T790M-like-3R, 72 hours
T6 construct: expressed in transfected cells; host or cells: Ba/F3

EGFR I740dupIPVAK = system: EGFR I740dupIPVAK
EGFR L858R/T790M/L718Q = target: T7, EGFR L858R/T790M/L718Q (Homo sapiens, UniProt P00533, L718Q/L858R/T790M); details: T790M-like-3R, 72 hours
T7 construct: expressed in transfected cells; host or cells: Ba/F3

EGFR T725M = target: T8, EGFR T725M (Homo sapiens, UniProt P00533, T725M); details: Classical-Like, 72 hours
T8 construct: expressed in transfected cells; host or cells: Ba/F3 cells, retroviral pBabe-Puro vector (vector made by GeneScript from EGFR WT)

EGFR Ex19del T854I = target: T9, EGFR Ex19del T854I (Homo sapiens, UniProt P00533, DEL746-750/T854I)
T9 construct: expressed in transfected cells; host or cells: Ba/F3 (retroviral transduction, pBabe-Puro based vectors)
Description: (§4) Data represent the ratio of the IC50 value for a given TKI for cells with a PACC EGFR mutation to the IC50 value for cells with wildtype EGFR.
as §2
(§5) After 48-72 hours of transduction, 2 μg/ml puromycin (Invitrogen) was added to Ba/F3 cell lines in complete RPMI. To select for EGFR positive cell lines, cells were stained with PE-EGFR (Biolegend) and sorted by FACS. After sorting, EGFR positive cells were maintained in RPMI containing 10% FBS, 1% penicillin/streptomycin, and 1 ng/ml EGF to support cell viability. Drug screening was performed as previously described^41,42. Shortly, cells were plated in 384-well plates (Greiner Bio-One) at 2000-3000 cells per well in technical triplicate. Seven different concentrations of TKIs or DMSO vehicle were added to reach a final volume of 40 μL per well. After 72 hours, 11 μL of Cell Titer Glo (Promega) was added to each well. Plates were incubated for a minimum of 10 minutes, and bioluminescence was determined using a FLUOstar OPTIMA plate reader (BMG LABTECH). Raw bioluminescence values were normalized to DMSO control treated cells, and values were plotted in GraphPad Prism. […] Drug screens were performed in technical triplicate on each plate and either duplicate or triplicate biological replicates.

EGFR R776C = target: T10, EGFR R776C (Homo sapiens, UniProt P00533, R776C)
T10 construct: host or cells: Ba/F3
Description: as §4, §2, §5

EGFR G724S = target: T11, EGFR G724S (Homo sapiens, UniProt P00533, G724S)
T11 construct: expressed in transfected cells; host or cells: Ba/F3
Description: as §4, §2, §5

EGFR Ex19del/L792H = target: T12, EGFR Ex19del/L792H (Homo sapiens, UniProt P00533, DEL746-750/L792H)
T12 construct: expressed in transfected cells; host or cells: Ba/F3

EGFR K754E = target: T13, EGFR K754E (Homo sapiens, UniProt P00533, K754E); details: Classical-Like, 72 hours
T13 construct: expressed in transfected cells; host or cells: Ba/F3 cells, retroviral pBabe-Puro vector

EGFR L858R/L718V = target: T14, EGFR L858R/L718V (Homo sapiens, UniProt P00533, L718V/L858R)
T14 construct: host or cells: Ba/F3

EGFR E709A G719S = target: T15, EGFR E709A G719S (Homo sapiens, UniProt P00533, E709A/G719S)
T15 construct: expressed in transfected cells; host or cells: Ba/F3
Description: as §4, §2, §5

EGFR D770insNPG = target: T16, EGFR D770insNPG (Homo sapiens, UniProt P00533, INS770NPG); details: Ex20, 72 hours
T16 construct: expressed in transfected cells; host or cells: Ba/F3 cells, retroviral pBabe-Puro vector

EGFR Ex19del T790M = target: T17, EGFR Ex19del T790M (Homo sapiens, UniProt P00533, DEL746-750/T790M); details: T790M-like-3S, 72 hours
T17 construct: expressed in transfected cells; host or cells: Ba/F3
Description: (§6) Data represent the ratio of the IC50 value for a given TKI for cells with a T790M-like-3S EGFR mutation to the IC50 value for cells with wildtype EGFR.
as §2, §5

EGFR N771dupN = target: T18, EGFR N771dupN (Homo sapiens, UniProt P00533, DUP771-771); details: Ex20, 72 hours
T18 construct: expressed in transfected cells; host or cells: Ba/F3 cells, retroviral pBabe-Puro vector

EGFR L858R/T790M = target: T19, EGFR L858R/T790M (Homo sapiens, UniProt P00533, L858R/T790M); details: T790M-like-3S, 72 hours
T19 construct: expressed in transfected cells; host or cells: Ba/F3
Description: as §6, §2, §5

EGFR S720P = target: T20, EGFR S720P (Homo sapiens, UniProt P00533, S720P); details: Classical-Like, 72 hours
T20 construct: expressed in transfected cells; host or cells: Ba/F3 cells, retroviral pBabe-Puro vector (vector made by GeneScript from EGFR WT)

EGFR H773insNPH = target: T21, EGFR H773insNPH (Homo sapiens, UniProt P00533, INS773NPH); details: Ex20, 72 hours
T21 construct: expressed in transfected cells; host or cells: Ba/F3 cells, retroviral pBabe-Puro vector
Description: as §1, §2, §3

EGFR D761N = target: T22, EGFR D761N (Homo sapiens, UniProt P00533, D761N); details: Classical-Like, 72 hours
T22 construct: expressed in transfected cells; host or cells: Ba/F3 cells, retroviral pBabe-Puro vector

EGFR Ex19del/C797S = target: T23, EGFR Ex19del/C797S (Homo sapiens, UniProt P00533, C797S/DEL746-750)
T23 construct: expressed in transfected cells; host or cells: Ba/F3

EGFR E709K L858R = target: T24, EGFR E709K L858R (Homo sapiens, UniProt P00533, E709K/L858R); details: Classical-Like, 72 hours
T24 construct: expressed in transfected cells; host or cells: Ba/F3 cells, retroviral pBabe-Puro vector

EGFR Ex19del/T790M/G724S = target: T25, EGFR Ex19del/T790M/G724S (Homo sapiens, UniProt P00533, DEL746-750/G724S/T790M); details: T790M-like-3S, 72 hours
T25 construct: expressed in transfected cells; host or cells: Ba/F3
Description: as §6, §2, §5

| ratio of IC50 for cells with mutant EGFR to IC50 for cells with wildtype EGFR (Mut/WT) (EGFR N771dupN G724S) | ratio of IC50 for cells with mutant EGFR to IC50 for cells with wildtype EGFR (Mut/WT) (EGFR S768dupSVD V769M) | ratio of IC50 for cells with mutant EGFR to IC50 for cells with wildtype EGFR (Mut/WT) (EGFR G724S T790M) | ratio of IC50 for cells with mutant EGFR to IC50 for cells with wildtype EGFR (Mut/WT) (EGFR L858R/T790M/L718Q) | ratio of IC50 for cells with mutant EGFR to IC50 for cells with wildtype EGFR (Mut/WT) (EGFR T725M) | ratio of IC50 for cells with mutant EGFR to IC50 for cells with wildtype EGFR (Mut/WT) (EGFR K754E) | ratio of IC50 for cells with mutant EGFR to IC50 for cells with wildtype EGFR (Mut/WT) (EGFR D770insNPG) | ratio of IC50 for cells with mutant EGFR to IC50 for cells with wildtype EGFR (Mut/WT) (EGFR Ex19del T790M) | ratio of IC50 for cells with mutant EGFR to IC50 for cells with wildtype EGFR (Mut/WT) (EGFR N771dupN) | ratio of IC50 for cells with mutant EGFR to IC50 for cells with wildtype EGFR (Mut/WT) (EGFR L858R/T790M) | ratio of IC50 for cells with mutant EGFR to IC50 for cells with wildtype EGFR (Mut/WT) (EGFR S720P) | ratio of IC50 for cells with mutant EGFR to IC50 for cells with wildtype EGFR (Mut/WT) (EGFR H773insNPH) | ratio of IC50 for cells with mutant EGFR to IC50 for cells with wildtype EGFR (Mut/WT) (EGFR D761N) | ratio of IC50 for cells with mutant EGFR to IC50 for cells with wildtype EGFR (Mut/WT) (EGFR E709K L858R) | ratio of IC50 for cells with mutant EGFR to IC50 for cells with wildtype EGFR (Mut/WT) (EGFR Ex19del/T790M/G724S) | SMILES | other results |
| --- | --- | --- | --- | --- | --- | --- | --- | --- | --- | --- | --- | --- | --- | --- | --- | --- |
| 1.553 | 0.5446 | 48.31 | 149.2 | 1.082 | 0.1738 | 1.211 | 0.2391 | 0.8508 | 0.7565 | 0.111 | 0.2952 | 0.363 | 0.008356 | 3.12 | C=CC(=O)Nc1cc(Nc2ncc(C(=O)OC(C)C)c(-c3cn(C)c4ccccc34)n2)c(OC)cc1N(C)CCN(C)C [TAK-788 (mobocertinib), mobocertinib] | ratio of the IC50 value for cells with a PACC EGFR mutation to the IC50 value for cells with wildtype EGFR (EGFR S768I; Ba/F3 cells, EGFR S768I (PACC), Mut/WT): 0.7766; ratio of the IC50 value for cells with a PACC EGFR mutation to the IC50 value for cells with wildtype EGFR (EGFR G719A/R776C; Ba/F3 cells, EGFR G719A/R776C (PACC), Mut/WT): 0.8144; ratio of the IC50 value for cells with a PACC EGFR mutation to the IC50 value for cells with wildtype EGFR (EGFR E709K; Ba/F3 cells, EGFR E709K (PACC), Mut/WT): 10.68; ratio of the IC50 value for cells with a PACC EGFR mutation to the IC50 value for cells with wildtype EGFR (EGFR I740dupIPVAK; Ba/F3 cells, EGFR I740dupIPVAK (PACC), Mut/WT): 7.185; ratio of the IC50 value for cells with a PACC EGFR mutation to the IC50 value for cells with wildtype EGFR (EGFR Ex19del T854I; Ba/F3 cells, EGFR Ex19del T854I (PACC), Mut/WT): 4.794; ratio of the IC50 value for cells with a PACC EGFR mutation to the IC50 value for cells with wildtype EGFR (EGFR R776C; Ba/F3 cells, EGFR R776C (PACC), Mut/WT): 0.04235; ratio of the IC50 value for cells with a PACC EGFR mutation to the IC50 value for cells with wildtype EGFR (EGFR G724S; Ba/F3 cells, EGFR G724S (PACC), Mut/WT): 108.6; ratio of the IC50 value for cells with a PACC EGFR mutation to the IC50 value for cells with wildtype EGFR (EGFR Ex19del/L792H; Ba/F3 cells, EGFR Ex19del/L792H (PACC), Mut/WT): 6.547; ratio of the IC50 value for cells with a PACC EGFR mutation to the IC50 value for cells with wildtype EGFR (EGFR L858R/L718V; Ba/F3 cells, EGFR L858R/L718V (PACC), Mut/WT): 3.491; ratio of the IC50 value for cells with a PACC EGFR mutation to the IC50 value for cells with wildtype EGFR (EGFR E709A G719S; Ba/F3 cells, EGFR E709A G719S (PACC), Mut/WT): 1.298; ratio of the IC50 value for cells with a PACC EGFR mutation to the IC50 value for cells with wildtype EGFR (EGFR Ex19del/C797S; Ba/F3 cells, EGFR Ex19del/C797S (PACC), Mut/WT): 43.27 |
| 3.161 | 3.097 | 12.05 | 45.78 | 0.03062 | 0.03231 | 5.404 | 4.871 | 6.261 | 10 | 0.03879 | 1.645 | 0.0008794 | 0.007985 | 9.95 | COc1cc2ncnc(Nc3ccc(F)c(Cl)c3)c2cc1NC(=O)/C=C/CN1CCCCC1 [Dacomitinib] | ratio of IC50 for cells with mutant EGFR to IC50 for cells with wildtype EGFR (Mut/WT) (EGFR S768I; PACC, S768I, Ba/F3, 72 hours): 17.66; ratio of IC50 for cells with mutant EGFR to IC50 for cells with wildtype EGFR (Mut/WT) (EGFR G719A/R776C; PACC, G719A/R776C, Ba/F3, 72 hours): 0.002518; ratio of IC50 for cells with mutant EGFR to IC50 for cells with wildtype EGFR (Mut/WT) (EGFR E709K; PACC, E709K, Ba/F3, 72 hours): 0.2711; ratio of IC50 for cells with mutant EGFR to IC50 for cells with wildtype EGFR (Mut/WT) (EGFR I740dupIPVAK; PACC, I740dupIPVAK, Ba/F3, 72 hours): 0.01376; ratio of IC50 for cells with mutant EGFR to IC50 for cells with wildtype EGFR (Mut/WT) (EGFR Ex19del T854I; PACC, Ex19del T854I, Ba/F3, 72 hours): 0.4127; ratio of IC50 for cells with mutant EGFR to IC50 for cells with wildtype EGFR (Mut/WT) (EGFR R776C; PACC, R776C, Ba/F3, 72 hours): 0.1215; ratio of IC50 for cells with mutant EGFR to IC50 for cells with wildtype EGFR (Mut/WT) (EGFR G724S; PACC, G724S, Ba/F3, 72 hours): 0.2379; ratio of IC50 for cells with mutant EGFR to IC50 for cells with wildtype EGFR (Mut/WT) (EGFR Ex19del/L792H; PACC, Ex19del/L792H, Ba/F3, 72 hours): 0.2436; ratio of IC50 for cells with mutant EGFR to IC50 for cells with wildtype EGFR (Mut/WT) (EGFR L858R/L718V; PACC, L858R/L718V, Ba/F3, 72 hours): 0.001529; ratio of IC50 for cells with mutant EGFR to IC50 for cells with wildtype EGFR (Mut/WT) (EGFR E709A G719S; PACC, E709A G719S, Ba/F3, 72 hours): 0.001614; ratio of IC50 for cells with mutant EGFR to IC50 for cells with wildtype EGFR (Mut/WT) (EGFR Ex19del/C797S; PACC, Ex19del/C797S, Ba/F3, 72 hours): 0.01762 |
